Paper PMC7158045 (BMC Plant Biology, 2020)
Counter-ions that a name gives are not always drawn.

Legend:
Experiment in all cases: biochemical
ZmDRIK1-R187-P492 = molecular target: T1, ZmDRIK1-R187-P492 (Zea mays, UniProt C0P4K9); conditions: read-out: dTm B, DSF, Boltzmann fit, 0.1% DMSO
T1 construct: kinase domain, R187-P492
T1 sequence (C0P4K9 1-514): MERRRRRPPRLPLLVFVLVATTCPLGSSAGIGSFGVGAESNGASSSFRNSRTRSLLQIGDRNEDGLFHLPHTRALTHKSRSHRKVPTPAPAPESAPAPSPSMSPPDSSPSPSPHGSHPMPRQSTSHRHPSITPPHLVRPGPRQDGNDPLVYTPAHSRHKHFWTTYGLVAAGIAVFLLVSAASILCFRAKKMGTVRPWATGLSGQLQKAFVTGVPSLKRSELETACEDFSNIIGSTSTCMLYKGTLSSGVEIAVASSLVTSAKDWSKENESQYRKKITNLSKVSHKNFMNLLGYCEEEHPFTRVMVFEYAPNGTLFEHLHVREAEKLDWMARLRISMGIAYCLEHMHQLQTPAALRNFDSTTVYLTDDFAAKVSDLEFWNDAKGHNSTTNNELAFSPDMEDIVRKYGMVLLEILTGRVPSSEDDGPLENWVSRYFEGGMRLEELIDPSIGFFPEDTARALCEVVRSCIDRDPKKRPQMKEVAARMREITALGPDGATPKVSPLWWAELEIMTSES

ZmDRIK1-K217-S514 = molecular target: T2, ZmDRIK1-K217-S514 (Zea mays, UniProt C0P4K9); conditions: read-out: dTm B, sheet ZmDRIK1-K217-S514;; DSF, Boltzmann fit, 0.1% DMSO
T2 construct: kinase domain, K217-S514
T2 sequence (C0P4K9 1-514): T1 sequence (C0P4K9 1-514)

[1] = molecular target: T3, ZmDRIK1 (DROUGHT RESPONSIVE INACTIVE KINASE 1), kinase domain (Zea mays, UniProt C0P4K9); conditions: read-out: dTm B, sheet ZmDRIK1-R187-S514;; DSF, Boltzmann fit, 0.1% DMSO
T3 construct: gene ZEAMMB73_Zm00001d028770; ZmDRIK1-KD R187-S514 (kinase domain)
T3 sequence (C0P4K9 187-514): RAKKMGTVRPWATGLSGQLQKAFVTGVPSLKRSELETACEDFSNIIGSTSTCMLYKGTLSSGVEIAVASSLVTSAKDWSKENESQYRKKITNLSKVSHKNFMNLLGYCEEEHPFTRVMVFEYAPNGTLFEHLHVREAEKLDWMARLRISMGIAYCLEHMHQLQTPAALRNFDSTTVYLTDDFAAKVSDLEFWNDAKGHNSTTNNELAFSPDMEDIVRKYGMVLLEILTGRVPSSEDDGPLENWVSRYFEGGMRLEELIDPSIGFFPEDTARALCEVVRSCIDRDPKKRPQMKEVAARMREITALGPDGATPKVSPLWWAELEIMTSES

ZmDRIK1-K217-P492 = molecular target: T4, ZmDRIK1-K217-P492 (Zea mays, UniProt C0P4K9); conditions: read-out: dTm B, sheet ZmDRIK1-K217-P492;; DSF, Boltzmann fit, 0.1% DMSO
T4 construct: kinase domain, K217-P492
T4 sequence (C0P4K9 1-514): T1 sequence (C0P4K9 1-514)

| SMILES | ΔTm at 10 µM (ZmDRIK1-R187-P492) | ΔTm at 10 µM (ZmDRIK1-K217-S514) | ΔTm at 10 µM [1] | ΔTm at 10 µM (ZmDRIK1-K217-P492) |
| --- | --- | --- | --- | --- |
| Oc1cccc(-c2nc(N3CCOCC3)c3oc4ncccc4c3n2)c1 [PI-103] | -0.366 °C | -0.559 °C | -0.608 °C | -1.14 °C |
| CCn1c(N)c(C(=O)NC)c(=O)c2ccc(C#C[C@@](C)(O)COC)nc21 [SAR131675] | -0.181 °C | -0.272 °C | -0.688 °C | -0.827 °C |
| COc1ccc2c(Oc3ccc(NC(=O)c4c(C)n(CC(C)(C)O)n(-c5ccccc5)c4=O)nc3)ccnc2c1 [AMG-458] | -0.312 °C | -0.329 °C | -0.675 °C | -0.94 °C |
| N=C(N)NC(=N)NCCc1ccccc1 [Phenformin HCl] | -0.125 °C | -0.473 °C | -0.596 °C | -1.3 °C |
| CCN(CC)CCNC(=O)c1c(C)[nH]c(/C=C2\C(=O)Nc3ccc(F)cc32)c1C [Sunitinib Malate] | -0.348 °C | -0.287 °C | -0.745 °C | -0.864 °C |
| Cc1ccc(NC(=O)c2ccc(CN3CCN(C)CC3)cc2)cc1Nc1nc(-c2cccnc2)cs1 [Masitinib (AB1010)] | -0.246 °C | -0.217 °C | -0.818 °C | -0.773 °C |
| CNC(=O)c1ccccc1Sc1ccc2c(/C=C/c3ccccn3)n[nH]c2c1 [Axitinib] | -0.367 °C | -0.335 °C | -0.702 °C | -1.24 °C |
| OCCn1cc(-c2cnc3nnn(Cc4ccc5ncccc5c4)c3n2)cn1 [PF-04217903] | -0.0503 °C | -0.0615 °C | -0.576 °C | -0.909 °C |
| CCCCCCCCCCCCc1ccc(S(=O)(=O)Nc2nncs2)cc1 [PHT-427] | -0.255 °C | -0.296 °C | -1.24 °C | -1.79 °C |
| CN([C@@H](Cc1ccc(OS(=O)(=O)c2cccc3cnccc23)cc1)C(=O)N1CCN(c2ccccc2)CC1)S(=O)(=O)c1cccc2cnccc12 [KN-62] | -1.15 °C | -0.945 °C | -1.39 °C | -1.79 °C |
| Cc1c(CN2CCN(C(=O)[C@H](C)O)CC2)sc2c(N3CCOCC3)nc(-c3cnc(N)nc3)nc12 [GDC-0980 (RG7422)] | -0.177 °C | -0.304 °C | -0.737 °C | -1.16 °C |
| Cc1cc(Nc2cc(CN3CCOCC3)c3nc(C)c(Cc4ccc(Cl)cc4F)n3n2)n[nH]1 [LY2784544] | -0.165 °C | -0.0976 °C | -0.894 °C | -0.85 °C |
| Cc1ccc(C(=O)Nc2ccc(CN3CCN(C)CC3)c(C(F)(F)F)c2)cc1C#Cc1cnc2[nH]ncc2c1 [GZD824] | -0.305 °C | 0.363 °C | -1.61 °C | -4.57 °C |
| NC(=O)c1cnc(N[C@@H]2CCCC[C@@H]2N)nc1Nc1cccc(-n2nccn2)c1 [PRT062607 (P505-15)] | -0.212 °C | -0.551 °C | -0.709 °C | -0.348 °C |
| C=CC(=O)N1CCN(c2nc(=O)n(-c3c(C)ccnc3C(C)C)c3nc(-c4c(O)cccc4F)c(F)cc23)[C@@H](C)C1 [K-Ras(G12C) inhibitor 9] | -0.298 °C | -0.321 °C | -0.658 °C | -0.935 °C |
| CCCS(=O)(=O)Nc1ccc(F)c(C(=O)c2c[nH]c3ncc(Cl)cc23)c1F [PLX-4720] | -0.12 °C | -0.478 °C | -1.27 °C | -0.653 °C |
| Cc1c(Cn2c(C)nc3c(C(=O)O)cc(N4CCOCC4)cc32)cccc1C(F)(F)F [GSK2636771] | -0.37 °C | -0.699 °C | -0.589 °C | -0.98 °C |
| Nc1nc(N)c2nc(-c3cccc(O)c3)c(-c3cccc(O)c3)nc2n1 [TG100-115] | -0.347 °C | -0.395 °C | -0.852 °C | -0.6 °C |
